For one data set, the target named is T1, human CRF1 receptor (Homo sapiens, UniProt P34998).
T1 construct: expressed in transfected cells; host or cells: CHO cells (membrane fraction)
T1 sequence (P34998 24-415): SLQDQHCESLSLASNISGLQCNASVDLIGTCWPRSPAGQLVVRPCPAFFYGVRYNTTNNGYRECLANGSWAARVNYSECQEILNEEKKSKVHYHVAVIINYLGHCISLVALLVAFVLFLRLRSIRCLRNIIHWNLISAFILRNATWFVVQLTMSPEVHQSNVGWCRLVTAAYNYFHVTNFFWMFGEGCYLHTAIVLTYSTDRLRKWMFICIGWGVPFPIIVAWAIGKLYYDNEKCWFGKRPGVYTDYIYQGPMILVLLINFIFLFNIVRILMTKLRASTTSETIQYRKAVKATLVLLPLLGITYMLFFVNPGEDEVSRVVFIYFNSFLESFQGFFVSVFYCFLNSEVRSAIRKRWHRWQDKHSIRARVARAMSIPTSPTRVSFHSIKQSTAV
The data set is described as follows: Measurement of CRF Binding Inhibitory Rate (receptor binding experiment with 125I-CRF). Conditions: human CRF1 receptor expressing CHO cellular membrane fraction, 50 pM 125I-CRF, room temperature 1.5 hr, 0.05 nM to 10 μM of compound; read-out: IC50 values (CRF binding inhibition).

One may read the IC50 as the midpoint of a concentration-inhibition curve. By melting point is commonly meant the temperature of the solid-liquid transition. `CCC(CC)c1ccc(Cl)c2nc3n(c12)CCCCN3c1ncc(C(N)=O)cc1C` [Example 340, 6-[10-Chloro-7-(1-ethylpropyl)-2,3,4,5-tetrahydro-1H-[1,3]diazepino[1,2-a]benzimidazol-1-yl]-5-methylpyridine-3-carboxamide] registered a melting point of 234 to 235 °C. The IC50 at human CRF1 receptor was below 1000 nM.

Turning to `CCC(CC)c1ccc(Cl)c2nc3n(c12)CCCCN3c1ncc(S(C)(=O)=O)cc1C` [Example 341, 10-Chloro-7-(1-ethylpropyl)-1-[3-methyl-5-(methylsulfonyl)pyridin-2-yl]-2,3,4,5-tetrahydro-1H-[1,3]diazepino[1,2-a]benzimidazole], the melting point is 137 to 139 °C. Also, the half-inhibitory concentration (IC50) on human CRF1 receptor was below 1000 nM.

Compound `CCC(CC)c1ccc(Cl)c2nc3n(c12)CCCCN3c1ncc(C(C)=O)cc1C` [Example 342, 1-{6-[10-Chloro-7-(1-ethylpropyl)-2,3,4,5-tetrahydro-1H-[1,3]diazepino[1,2-a]benzimidazol-1-yl]-5-methylpyridin-3-yl}ethanone] had a melting point of 142 °C. In addition, at human CRF1 receptor, the IC50 was below 1000 nM.

`CCC(CC)c1ccc(Cl)c2nc3n(c12)CCCCN3c1c(C)noc1C` [Example 343, 10-Chloro-1-(3,5-dimethylisoxazol-4-yl)-7-(1-ethylpropyl)-2,3,4,5-tetrahydro-1H-[1,3]diazepino[1,2-a]benzimidazole] showed a melting point of 163 to 164 °C. Also, the IC50 on human CRF1 receptor was below 1000 nM.

`COc1ccc(N2CCCn3c2nc2c(Cl)ccc(C(OCC(F)(F)F)C4CC4)c23)c(C)c1` (centres unmarked) [Example 353, 9-Chloro-6-[cyclopropyl(2,2,2-trifluoroethoxy)methyl]-1-(4-methoxy-2-methylphenyl)-1,2,3,4-tetrahydropyrimido[1,2-a]benzimidazole] registered a melting point of 157 to 158 °C. The IC50 at human CRF1 receptor was below 1000 nM.

`COc1ccc(N2CCCn3c2nc2c(Cl)ccc(C(O)(C4CC4)C4CC4)c23)c(C)c1` [Example 354, [9-Chloro-1-(4-methoxy-2-methylphenyl)-1,2,3,4-tetrahydropyrimido[1,2-a]benzimidazol-6-yl](dicyclopropyl)methanol]: the melting point fell in the range of 181 to 182 °C. The IC50 on human CRF1 receptor was below 1000 nM.

In turn, `CCOc1ccc(N2CCCn3c2nc2c(Cl)ccc(C(OC(F)F)C(F)(F)F)c23)c(C)c1` (centres unmarked) [Example 356, 9-Chloro-6-[1-(difluoromethoxy)-2,2,2-trifluoroethyl]-1-(4-ethoxy-2-methylphenyl)-1,2,3,4-tetrahydropyrimido[1,2-a]benzimidazole] came in with a melting point of 179 to 182 °C. Further, the IC50 at human CRF1 receptor is below 1000 nM.

Consider `Cc1cc(OC(C)C)ccc1N1CCCn2c1nc1c(Cl)ccc(C(OC(F)F)C(F)(F)F)c12` (centres unmarked) [Example 357, 9-Chloro-6-[1-(difluoromethoxy)-2,2,2-trifluoroethyl]-1-[2-methyl-4-(propan-2-yloxy)phenyl]-1,2,3,4-tetrahydropyrimido[1,2-a]benzimidazole], for which the melting point is 198 to 204 °C. The IC50 on human CRF1 receptor was below 1000 nM.

Take `CCN(CC)c1cccc2nc3n(c12)CC(OC)CCN3c1ccc(Cl)cc1Cl` (centres unmarked) [Example 358, 1-(2,4-Dichlorophenyl)-N,N-diethyl-4-methoxy-2,3,4,5-tetrahydro-1H-[1,3]diazepino[1,2-a]benzimidazol-7-amine]: the melting point is 120 to 122 °C. The IC50 on human CRF1 receptor is below 1000 nM.

`CCN(CC)c1cccc2nc3n(c12)C=CCCN3c1ccc(Cl)cc1Cl` [Example 362, 1-(2,4-Dichlorophenyl)-N,N-diethyl-2,3-dihydro-1H-[1,3]diazepino[1,2-a]benzimidazol-7-amine] gave a melting point of 105 to 106 °C. At human CRF1 receptor, the IC50 was below 1000 nM.

With `CCN(CC)c1cccc2nc3n(c12)CC(N)CCN3c1ccc(Cl)cc1Cl` (centres unmarked) [Example 363, 1-(2,4-Dichlorophenyl)-N^7,N^7-diethyl-2,3,4,5-tetrahydro-1H-[1,3]diazepino[1,2-a]benzimidazole-4,7-diamine], the melting point lay within 149 to 151 °C. The concentration for half-maximal inhibition (IC50) at human CRF1 receptor is below 1000 nM.

In turn, `CCN(CC)c1ccc(F)c2nc3n(c12)CCCN3c1ccc(Cl)cc1Cl` [Example 365, 1-(2,4-Dichlorophenyl)-N,N-diethyl-9-fluoro-1,2,3,4-tetrahydropyrimido[1,2-a]benzimidazol-6-amine] had a melting point of 170 to 172 °C. Further, on human CRF1 receptor, the IC50 was below 1000 nM.

`COc1ccc(C(O)(C2CC2)C2CC2)c2c1nc1n2CCCN1c1ccc(Cl)cc1Cl` [Example 369, Dicyclopropyl[1-(2,4-dichlorophenyl)-9-methoxy-1,2,3,4-tetrahydropyrimido[1,2-a]benzimidazol-6-yl]methanol] showed a melting point of 219 to 220 °C. Also, the IC50 at human CRF1 receptor was below 1000 nM.

In turn, `CCC(NS(C)(=O)=O)c1ccc(Cl)c2nc3n(c12)CCCN3c1ccc(Cl)cc1Cl` (centres unmarked) [Example 373, N-{1-[9-Chloro-1-(2,4-dichlorophenyl)-1,2,3,4-tetrahydropyrimido[1,2-a]benzimidazol-6-yl]propyl}methanesulfonamide] yielded a melting point of 125 to 126 °C. Further, the IC50 at human CRF1 receptor is below 1000 nM.

`CCNC(=O)NC(CC)c1ccc(Cl)c2nc3n(c12)CCCN3c1ccc(Cl)cc1Cl` (centres unmarked) [Example 374, 1-{1-[9-Chloro-1-(2,4-dichlorophenyl)-1,2,3,4-tetrahydropyrimido[1,2-a]benzimidazol-6-yl]propyl}-3-ethylurea]: the melting point is 250 to 252 °C. For the same compound, at human CRF1 receptor, the concentration for half-maximal inhibition (IC50) is below 1000 nM.

Compound `CCC(O)c1ccc(Cl)c2nc3n(c12)CCCN3c1c(Cl)cc(Cl)cc1Cl` (centres unmarked) [Example 391, 1-[9-Chloro-1-(2,4,6-trichlorophenyl)-1,2,3,4-tetrahydropyrimido[1,2-a]benzimidazol-6-yl]propan-1-ol] gave a melting point of 213 to 214 °C. On human CRF1 receptor, the IC50 was below 1000 nM.

`CCC(O)c1ccc(Cl)c2nc3n(c12)CCCN3c1c(Cl)cc(OC)cc1Cl` (centres unmarked) [Example 394, 1-[9-Chloro-1-(2,6-dichloro-4-methoxyphenyl)-1,2,3,4-tetrahydropyrimido[1,2-a]benzimidazol-6-yl]propan-1-ol]: the melting point is 206 to 208 °C. In addition, the IC50 on human CRF1 receptor is below 1000 nM.

Regarding `CCC(O)c1ccc(Cl)c2nc3n(c12)CCCN3c1c(Br)cc(OC)cc1Br` (centres unmarked) [Example 397, 1-[9-Chloro-1-(2,6-dibromo-4-methoxyphenyl)-1,2,3,4-tetrahydropyrimido[1,2-a]benzimidazol-6-yl]propan-1-ol], the melting point lay within 138 to 140 °C. For the same compound, on human CRF1 receptor, the IC50 is below 1000 nM.

In turn, `Cc1cc(C#N)ccc1N1CCCn2c1nc1c(Cl)ccc(C(OCC(F)(F)F)C3CC3)c12` (centres unmarked) [Example 402, 4-{9-Chloro-6-[cyclopropyl(2,2,2-trifluoroethoxy)methyl]-3,4-dihydropyrimido[1,2-a]benzimidazol-1(2H)-yl}-3-methylbenzonitrile] gave a melting point of 207 to 209 °C. Moreover, the IC50 on human CRF1 receptor was below 1000 nM.

Turning to `CCC(NC(=O)C(F)F)c1ccc(Cl)c2nc3n(c12)CCCN3c1c(Cl)cc(Cl)cc1Cl` (centres unmarked) [Example 409, N-{1-[9-Chloro-1-(2,4,6-trichlorophenyl)-1,2,3,4-tetrahydropyrimido[1,2-a]benzimidazol-6-yl]propyl}-2,2-difluoroacetamide], the melting point was in the range of 211 to 213 °C. For the same compound, the IC50 at human CRF1 receptor is below 1000 nM.

Compound `CCC(NC(=O)OC)c1ccc(Cl)c2nc3n(c12)CCCN3c1c(Cl)cc(Cl)cc1Cl` (centres unmarked) [Example 410, Methyl {1-[9-chloro-1-(2,4,6-trichlorophenyl)-1,2,3,4-tetrahydropyrimido[1,2-a]benzimidazol-6-yl]propyl}carbamate] returned a melting point of 231 to 233 °C. The IC50 on human CRF1 receptor was below 1000 nM.

`CS(=O)(=O)NC(c1ccc(Cl)c2nc3n(c12)CCCN3c1c(Cl)cc(Cl)cc1Cl)C(F)(F)F` (centres unmarked) [Example 416, N-{1-[9-Chloro-1-(2,4,6-trichlorophenyl)-1,2,3,4-tetrahydropyrimido[1,2-a]benzimidazol-6-yl]-2,2,2-trifluoroethyl}methanesulfonamide]: the melting point lay in the range of 290 to 291 °C. The IC50 on human CRF1 receptor was below 1000 nM.

`Cc1cc(Cl)cc(Cl)c1N1CCn2c1nc1c(Cl)ccc(C(O)(C3CC3)C3CC3)c12` [Example 426, [8-Chloro-1-(2,4-dichloro-6-methylphenyl)-2,3-dihydro-1H-imidazo[1,2-a]benzimidazol-5-yl](dicyclopropyl)methanol]: the melting point was 193 to 196 °C. Further, at human CRF1 receptor, the half-maximal inhibitory concentration (IC50) was below 1000 nM.

Consider `Cc1cc(Cl)cc(Cl)c1N1CCn2c1nc1cccc(C(O)(C3CC3)C3CC3)c12` [Example 428, Dicyclopropyl[1-(2,4-dichloro-6-methylphenyl)-2,3-dihydro-1H-imidazo[1,2-a]benzimidazol-5-yl]methanol], for which the melting point lay in the range of 243 to 246 °C. The IC50 at human CRF1 receptor was below 1000 nM.

As to `CCC(OC(=O)C1CC1)c1ccc(Cl)c2nc3n(c12)CCCN3c1ccc(Cl)cc1Cl` (centres unmarked) [Example 431, 1-[9-Chloro-1-(2,4-dichlorophenyl)-1,2,3,4-tetrahydropyrimido[1,2-a]benzimidazol-6-yl]propyl cyclopropanecarboxylate], the melting point fell in the range of 159 to 161 °C. On human CRF1 receptor, the half-maximal inhibitory concentration (IC50) was below 1000 nM.

Source of the values: patent US8785460B2, “Tricyclic compounds and use thereof” (Takeda Pharmaceutical Company Limited, priority 2008, dated 2014).
